Data from patent publication US11787772B2, “Carboxylic diarythiazepineamines as mixed mu- and delta-opioid receptor agonists” (THE TRUSTEES OF COLUMBIA UNIVERSITY IN THE CITY OF NEW YORK, priority 2017, dated 2023).
Where a name gives a salt, the structure may show the parent alone. Read-outs that look alike come from different tables or passages of the source.

Columns and labels:
[1] = molecular target: T1, human mu opioid receptor (MOR) (Homo sapiens, UniProt P35372); assay: BRET assay measuring G protein activation, agonist activity at human MOR; assay type: cell-based; conditions: for MOR potency relative to analogs lacking substitution at position 2: dihalo-substituted core
T1 construct: expressed in transfected cells; host or cells: HEK-293T
Method: (§1) The diarylthiazepinamine carboxylic acids (9) were tested for agonist activity at the human mu opioid receptor (MOR) and delta opioid receptor (DOR) using bioluminescence resonance energy transfer (BRET) assays measuring G protein activation as previously described (Table 1) (Rives, M.-L. et al. 2012; Negri, A. et al. 2013).
Human MOR cDNA was transfected alongside GααB with RLuc8 inserted at position 91 (GααB—RLuc8), Gβ1 (β1), and Gγ2 fused to the full-length mVenus at its N terminus (mVenus-γ2) into HEK-293T cells (5×10^6 cells/plate) in 10-cm dishes using PEI (Polysciences Inc.; Warrington, PA) in a 1:1 ratio diluted in Opti-MEM (Life Technologies Corp.; Grand Island, NY) to assay for G protein activation as described previously (Rives, M.-L. et al. 2012; Negri, A. et al. 2013). Cells were maintained in Dulbecco's Modified Eagle Medium (high glucose #11965; Life Technologies) supplemented with 10% FBS (Premium Select, Atlanta Biologicals; Atlanta, GA) and 100 U/mL penicillin and 100 μg/mL streptomycin (#15140, Life Technologies). After 24 hours the media was changed, and the experiment was performed 24 hours later (48 hours after transfection).
(§2) Transfected cells were dissociated and re-suspended in phosphate-buffered saline (PBS). Approximately 200,000 cells/well were added to a black-framed, white well 96-well plate (#60050; Perkin Elmer; Waltham, MA). The microplate was centrifuged and the cells were re-suspended in PBS. Then 5 μM of the luciferase substrate coelenterazine H was added to each well for 5 minutes. Following coelenterazine H addition, ligands were added and the BRET signal was measured at 5 minutes on a PHERAstar FS plate reader. Quantification of the BRET signal required calculating the ratio of the light emitted by the energy acceptor, mVenus (510-540 nm), over the light emitted by the energy donor, RLuc8 (485 nm). […] Dose response curves were fit using a three-parameter logistics equation in GraphPad Prism 6.
The additional diarylthiazepinamine carboxylic acids (9i, 9j, 9k, and 91) were tested for agonist activity at the human mu opioid receptor (MOR) using bioluminescence resonance energy transfer (BRET) assays measuring G protein activation (Table 2) as previously described (Rives, M.-L. et al. 2012; Negri, A. et al. 2013; Example 2 of the present application).

[2] = molecular target: T2, human delta opioid receptor (DOR) (Homo sapiens, UniProt P41143); assay: BRET assay measuring G protein activation, agonist activity at human DOR; assay type: cell-based
T2 construct: expressed in transfected cells
Method: as §1, §2

[3] = physchem; conditions: 25 °C, thermodynamic from solid
Method: Test compounds (4 mg) were added to 200 μL of one of the tested aqueous solutions (hereinafter—buffer): 100 mM aqueous HCl (pH 1) or 100 mM Na-phosphate buffer (pH 7). The obtained suspensions/solutions with the theoretical concentration of 20 mg/mL were further allowed to equilibrate at 25° C. on a thermostatic orbital shaker for 24 hours and then centrifuged at 6000 rpm for 4 minutes and filtered through HTS filter plates using a vacuum manifold. In parallel, compound dilutions in 50% acetonitrile/HCl and 30% acetonitrile/Na-phosphate buffer mixes were prepared to theoretical concentrations of 0 mg/mL (blank), 0.1 mg/mL, 0.2 mg/mL, and 0.4 mg/mL in duplicates to generate calibration curves falling within the optimum UV absorption range. The filtrates of test compounds were diluted 100-fold with acetonitrile-buffer mixtures before measuring. The filtered supernatant test samples were transferred to 96-well plates and measured for absorbance in the 200-550 nm range with 5 nm step increment. The concentrations of compounds in supernatants were calculated using the measured absorbance and the previously determined calibration curve. Proper absorbance wavelengths for calculations were selected for each compound manually based on absorbance maxima (absolute absorbance unit values for the minimum and maximum concentration points within 0-2.5 OD range).

[4] = tested on: male C57BL/6 mice; assay: Analgesic activity in hot plate assay; assay type: in vivo, mouse; conditions: for ED50: Mus musculus, sc, hot plate 55° C., male C57BL/6 mice, tested at 15 post-injection
Method: Male C57BL/6 mice were timed for latency to jump on a hot-plate apparatus set to 55° C., using a 30 s cutoff to prevent tissue damage. Following a baseline test, animals were injected subcutaneously (s.c.) with escalating doses of drug and tested at […] (time of maximal effect). Dose-response curves were fit via nonlinear regression using GraphPad Prism (La Jolla, CA).

[5] = Solubility determination (Method A), neutral water; assay type: physicochemical; conditions: for solubility at 24 h: distilled water, thermodynamic from solid, neutral water, 20° C., Method A (24 h stirring), average of 2 independent trials, read-out: Aqueous Solubility (mg/mL @ 20° C.)
Method: (§3) A quantity of the appropriate compound sufficient to saturate the resulting solution was added to distilled water (0.50 mL) and the mixture was stirred vigorously for 24 h at room temperature (20° C.). The mixture was then centrifuged for 3 min. at 21,000×g and the stir bar was carefully removed. The mixture was then centrifuged again for 5 min. at 21,000×g and the supernatant was carefully removed by syringe and passed through a […] syringe filter. An aliquot (300 μL) of the filtered supernatant was concentrated in vacuo and the mass of the residual solids determined in order to calculate the solubility.

[6] = Solubility determination (Method B), neutral water; assay type: physicochemical; conditions: distilled water, thermodynamic from solid; neutral water, 20° C., Method B (2 h orbital shaker); read-out: Aqueous Solubility (mg/mL @ 20° C.)
Method: as §3, with “agitated on an orbital shaker” for “was stirred vigorously”, “2” for “24”, “centrifuged” for “centrifuged for 3 min. at 21,000×g and the stir bar was carefully removed. The mixture was then centrifuged again”

[7] = BRET G protein activation, HEK-293T cells, error ± SEM of 2 or more independent trials, read-out: Human MOR (EC50)
[8] = BRET G protein activation, error ± SEM of 2 or more independent trials, read-out: Human DOR (EC50)

T1 sequence (P35372 whole entry): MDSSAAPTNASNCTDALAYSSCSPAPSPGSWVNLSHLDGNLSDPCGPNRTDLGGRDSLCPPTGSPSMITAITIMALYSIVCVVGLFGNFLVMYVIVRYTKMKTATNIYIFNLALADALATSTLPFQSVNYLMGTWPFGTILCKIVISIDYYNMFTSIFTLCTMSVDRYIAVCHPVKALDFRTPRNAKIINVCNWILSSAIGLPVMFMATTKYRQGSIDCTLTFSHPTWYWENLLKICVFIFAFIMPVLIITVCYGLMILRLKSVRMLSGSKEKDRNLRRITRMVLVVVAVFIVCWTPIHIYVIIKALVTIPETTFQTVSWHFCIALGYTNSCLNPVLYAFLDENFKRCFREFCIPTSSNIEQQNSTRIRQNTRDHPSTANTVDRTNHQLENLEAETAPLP
T2 sequence (P41143 whole entry): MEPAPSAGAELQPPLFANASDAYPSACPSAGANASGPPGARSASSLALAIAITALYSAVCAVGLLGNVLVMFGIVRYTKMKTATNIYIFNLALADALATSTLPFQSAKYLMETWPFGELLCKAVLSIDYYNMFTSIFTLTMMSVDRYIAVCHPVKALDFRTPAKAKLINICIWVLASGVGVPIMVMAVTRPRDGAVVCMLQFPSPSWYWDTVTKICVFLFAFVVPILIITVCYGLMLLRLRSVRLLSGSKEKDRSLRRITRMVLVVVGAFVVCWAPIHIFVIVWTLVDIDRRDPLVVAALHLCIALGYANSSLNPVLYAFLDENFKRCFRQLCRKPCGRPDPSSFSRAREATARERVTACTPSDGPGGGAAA

## Cc1ccc2c(c1)S(=O)(=O)N(C)c1ccccc1C2NCCCCCCC(=O)O (stereo not shown) [3-Methyl-substituted Analog, reference compound]
[1]
  EC50: 890 nM
[2]
  EC50: > 10000 nM

## CCOC(=O)CCCCCCNC1c2ccccc2N(C)S(=O)(=O)c2cc(SC)ccc21 (stereo not shown) [Compound 8c, Ethyl 7-((6-methyl-3-(methylthio)-5,5-dioxido-6,11-dihydrodibenzo[c,f][1,2]thiazepin-11-yl)amino)heptanoate]
[1]; [7]
  EC50: 222 nM
[2]; BRET G protein activation
  Emax: 70%
  Human DOR agonist type (partial / full agonist): partial agonist
[2]; [8]
  EC50: 7000 nM

## C#Cc1ccc2c(c1)S(=O)(=O)N(C)c1ccccc1C2NCCCCCCC(=O)O (stereo not shown) [Compound 9a, 7-((3-Ethynyl-6-methyl-5,5-dioxido-6,11-dihydrodibenzo [c,f][1,2]thiazepin-11-yl)amino)heptanoic acid]
[1]; [7]
  EC50: 53.3 ± 18 nM
[2]; [8]
  EC50: 5900 ± 300 nM

## CN1c2ccccc2C(NCCCCCCC(=O)O)c2cc(F)c(Br)cc2S1(=O)=O (stereo not shown) [Compound 9b, 7-((3-Bromo-2-fluoro-6-methyl-5,5-dioxido-6,1-dihydrodibenzo [c,f][1,2]thiazepin-11-yl)amino) heptanoic acid hydrochloride salt]
[1]
  EC50: 83.1 ± 5.7 nM
  MOR potency relative to analogs lacking substitution at position 2: equipotent or more potent
[3]; pH 1, simulated gastric fluid
  solubility: 1100 µg/mL
[3]; pH 7, aqueous buffer
  solubility: 840 µg/mL
[2]
  EC50: 11500 ± 2200 nM
[4]
  ED50: 5.1 mg/kg
[4]; much higher potency than tianeptine
  Analgesic activity in the mouse hot plate assay: potent analgesics
[5]
  solubility at 24 h: 9.8 mg/mL
[5]; neutral unbuffered water
  Solubility relative to monohalo counterpart bromotianeptine: 2-3 fold

## CSc1ccc2c(c1)S(=O)(=O)N(C)c1ccccc1C2NCCCCCCC(=O)O (stereo not shown) [Compound 9c, 7-((6-Methyl-3-(methylthio)-5,5-dioxido-6,1l-dihydrodibenzo [c,f][1,2]thiazepin-11-yl)amino)heptanoic acid]
[1]; [7]
  EC50: 41.8 nM
[2]; BRET G protein activation
  Emax: 51%
  Human DOR Emax: 51%
  Human DOR agonist type (partial / full agonist): partial agonist
[2]; [8]
  EC50: 2060 nM
[2]; FIG. 1
  DOR Emax relative to the control agonist DPDPE: lesser Emax than the control agonist DPDPE

## CN1c2ccccc2C(NCCCCCCCC(=O)O)c2ccc(Br)cc2S1(=O)=O (stereo not shown) [Compound 9d, 8-((3-Bromo-6-methyl-5,5-dioxido-6,11-dihydrodibenzo [c,f][1,2]thiazepin-11-yl)amino) octanoic acid hydrochloride salt]
[1]
  EC50: 56 ± 24 nM
[2]
  EC50: 1700 ± 40 nM

## CN1c2ccccc2C(NCCCCCCCCC(=O)O)c2ccc(I)cc2S1(=O)=O (stereo not shown) [Compound 9f, 9-((3-Iodo-6-methyl-5,5-dioxido-6,11-dihydrodibenzo [c,f][1,2]thiazepin-11-yl)amino) nonanoic acid hydrochloride salt]
[1]
  EC50: 22 ± 14 nM
[2]
  EC50: 530 ± 340 nM

## CN1c2ccccc2C(NCCCCCCCCCCC(=O)O)c2ccc(I)cc2S1(=O)=O (stereo not shown) [Compound 9h, 11-((3-Iodo-6-methyl-5,5-dioxido-6,11-dihydrodibenzo [c,f][1,2]thiazepin-11-yl)amino)undecanoic acid hydrochloride salt]
[1]
  EC50: 110 ± 29 nM
[2]
  EC50: 700 ± 305 nM

## CN1c2ccccc2C(NCCCCCCC(=O)O)c2cc(Cl)c(Cl)cc2S1(=O)=O.Cl (stereo not shown) [Compound 9i, 7-((2,3-dichloro-6-methyl-5,5-dioxido-6,11-dihydrodibenzo [c,f][1,2]thiazepin-11-yl)amino)heptanoic acid hydrochloride salt]
[1]
  EC50: 172 nM
  MOR potency relative to analogs lacking substitution at position 2: equipotent or more potent

## CN1c2ccccc2C(NCCCCCCC(=O)O)c2cc(F)c(Cl)cc2S1(=O)=O.Cl (stereo not shown) [Compound 9j, 7-((3-chloro-2-fluoro-6-methyl-5,5-dioxido-6,11-dihydrodibenzo [c,f][1,2]thiazepin-11-yl)amino)heptanoic acid hydrochloride salt]
[1]
  EC50: 129 nM
  MOR potency relative to analogs lacking substitution at position 2: equipotent or more potent
[3]; pH 1, simulated gastric fluid
  solubility: 5300 µg/mL
[3]; pH 7, aqueous buffer
  solubility: 70 µg/mL

## CN1c2ccccc2C(NCCCCC(=O)O)c2cc(F)c(Br)cc2S1(=O)=O.Cl (stereo not shown) [Compound 9l, 5-((3-bromo-2-fluoro-6-methyl-5,5-dioxido-6,11-dihydrodibenzo [c,f][1,2]thiazepin-11-yl)amino)pentanoic acid hydrochloride salt]
[1]
  EC50: 45 nM
  MOR potency relative to analogs lacking substitution at position 2: equipotent or more potent

## CCOC(=O)CCCCCCNC1c2ccccc2N(C)S(=O)(=O)c2ccc(Cl)cc21 (stereo not shown) [Compound 15a, reference compound]
[1]
  EC50: 4150 ± 930 nM

## CCOC(=O)CCCCCCNC1c2ccccc2N(C)S(=O)(=O)c2ccccc21 (stereo not shown) [Compound 15c, reference compound]
[1]
  EC50: 156 ± 84.7 nM

## COCCCNC1c2ccccc2N(C)S(=O)(=O)c2ccc(Cl)cc21 (stereo not shown) [Compound 16a, reference compound]
[1]; [7]
  EC50: 16900 ± 5220 nM

## COCCCNC1c2ccccc2N(C)S(=O)(=O)c2cc(Cl)ccc21 (stereo not shown) [Compound 16b, reference compound]
[1]; [7]
  EC50: 264 ± 85.3 nM

## COCCCNC1c2ccccc2N(C)S(=O)(=O)c2ccccc21 (stereo not shown) [Compound 16c, reference compound]
[1]; [7]
  EC50: 2010 ± 700 nM

## CN1c2ccccc2C(NCCCCCCC(=O)[O-])c2ccc(Cl)cc2S1(=O)=O.[Na+] (stereo not shown) [Tianeptine (Na salt), Tianeptine, reference compound]
[4]
  ED50: 15 mg/kg

## CN1c2ccccc2C(NCCCCCCC(=O)O)c2ccc(Br)cc2S1(=O)=O.Cl (stereo not shown) [bromotianeptine, reference compound]
[3]; pH 1, simulated gastric fluid
  solubility: < 100 µg/mL
[3]; pH 7, aqueous buffer
  solubility: 620 µg/mL
[5]
  solubility at 24 h: 4.5 mg/mL

## CN1c2ccccc2C(NCCCCCCC(=O)O)c2ccc(I)cc2S1(=O)=O.Cl (stereo not shown) [iodotianeptine, reference compound]
[3]; pH 1, simulated gastric fluid
  solubility: < 100 µg/mL
[3]; pH 7, aqueous buffer
  solubility: 150 µg/mL
[6]
  solubility at 2 h: 2.3 mg/mL
